pIC50: −log10 of the molar value. Structures can show the parent of a compound that is named as a salt.
Target: Avi-humanTEAD4 217-434 / Cy5 labeled humanYAP 60-100 (Homo sapiens (Human), UniProt Q15561)
Experiment: TR-FRET YAP-TEAD4 in-vitro biochemical assay
Format: binding
Details: 1 nM Avi-humanTEAD4 217-434, 20 nM Cy5-humanYAP 60-100, 1 h room temperature
Experimental: N-terminus Cy5 labeled humanYAP^60-100 (20 nM) was then added to this preparation. Compounds were dissolved at 10 mM in 100% DMSO and serial dilutions were made in 100% DMSO. The diluted compound solutions were incubated in white 384-well plates (Greiner Bio-One) for 1 h at room temperature with the above described mix. The final DMSO concentration present in the assay was 1%. […] The IC50 values were estimated by fitting the data by nonlinear fit regression (GraphPad Prism).

Sequence of Avi-humanTEAD4 217-434 / Cy5 labeled humanYAP 60-100 (Q15561 217-434): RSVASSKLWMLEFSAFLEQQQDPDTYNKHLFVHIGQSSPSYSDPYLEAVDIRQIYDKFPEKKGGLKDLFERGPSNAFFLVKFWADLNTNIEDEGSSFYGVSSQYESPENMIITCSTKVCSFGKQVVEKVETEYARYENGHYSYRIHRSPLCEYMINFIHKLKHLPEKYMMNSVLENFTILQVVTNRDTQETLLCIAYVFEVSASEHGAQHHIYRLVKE

| SMILES | pIC50 |
| --- | --- |
| CCc1ccc(C(N)=O)c(-c2c(Cl)c(F)cc3c2C[C@@](CN[C@H]2CC[C@@](C)(O)CC2)(c2ccccc2)O3)c1F (atropisomer, axis not shown) [Example 68b, 2-((2S,4S)-5-chloro-6-fluoro-2-((((cis)-4-hydroxy-4-methylcyclohexyl)amino)methyl)-2-phenyl-2,3-dihydrobenzofuran-4-yl)-4-ethyl-3-fluorobenzamide] | 7.92 |
| CNC(=O)c1cnc(O)c(F)c1-c1c(Cl)c(F)cc2c1C[C@](c1ccccc1)([C@@H]1CCCN1)O2 [Example 157, 4-((2S,4S)-5-chloro-6-fluoro-2-phenyl-2-((S)-pyrrolidin-2-yl)-2,3-dihydrobenzofuran-4-yl)-5-fluoro-6-hydroxy-N-methylnicotinamide] | 7.12 |
| CNC(=O)[C@H]1CC[C@@H](NC[C@@]2(c3ccccc3)Cc3c(ccc(Cl)c3-c3c(F)cccc3C(N)=O)O2)CC1 (relative stereo) [Example 139b, 2-((2S,4S)-5-chloro-2-((((cis)-4-(methylcarbamoyl)cyclohexyl)amino)methyl)-2-phenyl-2,3-dihydrobenzofuran-4-yl)-3-fluorobenzamide] | 7.96 |
| NC(=O)c1ccc(OC(F)F)c(F)c1-c1c(Cl)c(F)cc2c1C[C@@](CNC1CCC(CO)CC1)(c1ccccc1)O2 (single isomer, unassigned) [Example 61b] | 8.00 |
| Cc1cccc(C(N)=O)c1-c1c(Cl)ccc2c1C[C@@](CN)(c1ccccc1)O2 (atropisomer, axis not shown) [Example 6, 2-((2S,4R)-2-(aminomethyl)-5-chloro-2-phenyl-2,3-dihydrobenzofuran-4-yl)-3-methylbenzamide] | 6.42 |
| NC[C@@]1(c2ccccc2)Cc2c(ccc(Cl)c2-c2c(Cl)cccc2C(N)=O)O1 (atropisomer, axis not shown) [Example 7, 2-((2S,4S)-2-(aminomethyl)-5-chloro-2-phenyl-2,3-dihydrobenzofuran-4-yl)-3-chlorobenzamide trifluoroacetate salt] | 7.19 |
| NC[C@@]1(c2ccccc2)Cc2c(cc(F)c(Cl)c2-c2c(C(N)=O)ccc(OC(F)(F)CO)c2F)O1 (atropisomer, axis not shown) [Example 36, 2-((2S,4S)-2-(aminomethyl)-5-chloro-6-fluoro-2-phenyl-2,3-dihydrobenzofuran-4-yl)-4-(1,1-difluoro-2-hydroxyethoxy)-3-fluorobenzamide] | 8.00 |
| Fc1cc2c(c(-c3ccccc3)c1Cl)C[C@](c1ccccc1)([C@@H]1C[C@@H](F)CN1)O2 [Example 160, (2S,4R)-2-((S)-5-chloro-6-fluoro-2,4-diphenyl-2,3-dihydrobenzofuran-2-yl)-4-fluoropyrrolidine] | 5.36 |
| C[C@]1(NC[C@@]2(c3ccccc3)Cc3c(cc(F)c(Cl)c3-c3c(C(N)=O)ccc(OC(F)F)c3F)O2)CC[C@H](O)CC1 (atropisomer, axis not shown) [Example 84, 2-((2S,4S)-5-chloro-6-fluoro-2-((((trans)-4-hydroxy-1-methylcyclohexyl)amino)methyl)-2-phenyl-2,3-dihydrobenzofuran-4-yl)-4-(difluoromethoxy)-3-fluorobenzamide] | 7.39 |
| CC(C)(C)NC[C@@]1(c2ccccc2)Cc2c(cc(F)c(Cl)c2-c2c(C(N)=O)ccc(OC(F)F)c2F)O1 (atropisomer, axis not shown) [Example 73, 2-((2S,4S)-2-((tert-butylamino)methyl)-5-chloro-6-fluoro-2-phenyl-2,3-dihydrobenzofuran-4-yl)-4-(difluoromethoxy)-3-fluorobenzamide] | 7.85 |
| NC(=O)c1ccc(OC(F)F)c(F)c1-c1c(Cl)c(F)cc2c1C[C@@](CNCCN1CCCC1=O)(c1ccccc1)O2 (atropisomer, axis not shown) [Example 78, 2-((2S,4S)-5-chloro-6-fluoro-2-(((2-(2-oxopyrrolidin-1-yl)ethyl)amino)methyl)-2-phenyl-2,3-dihydrobenzofuran-4-yl)-4-(difluoromethoxy)-3-fluorobenzamide] | 6.80 |

More lines, now with the values ahead:

| pIC50 | SMILES |
| --- | --- |
| 8.00 | CCc1ccc(C(N)=O)c(-c2c(Cl)c(F)cc3c2C[C@@](CN[C@H]2CC[C@](C)(O)CC2)(c2ccccc2)O3)c1F (atropisomer, axis not shown) [Example 68a, 2-((2S,4S)-5-chloro-6-fluoro-2-((((trans)-4-hydroxy-4-methylcyclohexyl)amino)methyl)-2-phenyl-2,3-dihydrobenzofuran-4-yl)-4-ethyl-3-fluorobenzamide] |
| 8.70 | NC(=O)c1ccc(OC(F)F)c(F)c1-c1c(Cl)c(F)cc2c1C[C@@](CNC1CCC(O)(CF)CC1)(c1ccccc1)O2 (single isomer, unassigned) [Example 55b] |
| > 9.00 | NC(=O)c1ccc(OC(F)F)c(F)c1-c1c(Cl)c(F)cc2c1C[C@@](CNC1CCC(O)(CF)CC1)(c1ccccc1)O2 (single isomer, unassigned) [Example 55a] |
| 8.15 | CO[C@H]1CC[C@H](NC[C@]2(c3ccccc3)Oc3cc(F)c(Cl)c(-c4c(C(N)=O)ccc(OC(F)F)c4F)c3[C@@H]2O)CC1 (relative stereo) [Example 136b, 2-((2S,3S,4S)-5-chloro-6-fluoro-3-hydroxy-2-((((trans)-4-methoxycyclohexyl)amino)methyl)-2-phenyl-2,3-dihydrobenzofuran-4-yl)-4-(difluoromethoxy)-3-fluorobenzamide] |
| 8.40 | CO[C@H]1c2c(cc(F)c(Cl)c2-c2c(C(N)=O)ccc(OC(F)F)c2F)O[C@]1(CN[C@H]1CC[C@@H](O)CC1)c1ccccc1 (relative stereo) [Example 102b, 2-((2S,3S,4S)-5-chloro-6-fluoro-2-((((cis)-4-hydroxycyclohexyl)amino)methyl)-3-methoxy-2-phenyl-2,3-dihydrobenzofuran-4-yl)-4-(difluoromethoxy)-3-fluorobenzamide] |
| > 9.00 | COCCOc1ccc(C(N)=O)c(-c2c(Cl)c(F)cc3c2[C@H](C)[C@@](CN[C@H]2CC[C@](C)(O)CC2)(c2ccccc2)O3)c1F (atropisomer, axis not shown) [Example 116a, 2-((25,35,4S)-5-chioro-6-fluoro-2-((((trans)-4-hydroxy-4-methylcyclohexyl)amino)methyl)-3-methyl-2-phenyl-2,3-dihydrobenzofuran-4-yl)-3-fluoro-4-(2-methoxyethoxy)benzamide] |
| 8.70 | COCCOc1ncc(C(N)=O)c(-c2c(Cl)c(F)cc3c2[C@H](C)[C@@](CN)(c2ccccc2)O3)c1F (atropisomer, axis not shown) [Example 108, 4-((2S,3S,4S)-2-(aminomethyl)-5-chloro-6-fluoro-3-methyl-2-phenyl-2,3-dihydrobenzofuran-4-yl)-5-fluoro-6-(2-methoxyethoxy)nicotinamide] |
| 8.30 | NC[C@]1(c2ccccc2)Oc2cc(F)c(Cl)c(-c3c(C(N)=O)ccc(OCCO)c3F)c2[C@@H]1O (atropisomer, axis not shown) [Example 98, 2-((2S,3S,4S)-2-(Aminomethyl)-5-chloro-6-fluoro-3-hydroxy-2-phenyl-2,3-dihydrobenzofuran-4-yl)-3-fluoro-4-(2-hydroxyethoxy)benzamide] |
| 8.52 | NC[C@@]1(c2ccccc2)Cc2c(ccc(Cl)c2-c2c(C(N)=O)cnc(OC(F)F)c2F)O1 (atropisomer, axis not shown) [Example 19, 4-((2S,4S)-2-(Aminomethyl)-5-chloro-2-phenyl-2,3-dihydrobenzofuran-4-yl)-6-(difluoromethoxy)-5-fluoronicotinamide] |
| 8.70 | COc1ncc(C(N)=O)c(-c2c(Cl)c(F)cc3c2C[C@@](CN[C@H]2CC[C@](C)(O)CC2)(c2ccccc2)O3)c1F (atropisomer, axis not shown) [Example 66a, 4-((2S,4S)-5-chloro-6-fluoro-2-((((trans)-4-hydroxy-4-methylcyclohexyl)amino)methyl)-2-phenyl-2,3-dihydrobenzofuran-4-yl)-5-fluoro-6-methoxynicotinamide] |
| 8.30 | COC(=O)[C@H]1CC[C@@H](NC[C@@]2(c3ccccc3)Cc3c(ccc(Cl)c3-c3c(C(N)=O)ccc(F)c3F)O2)CC1 (relative stereo) [Example 137a, Methyl (cis)-4-((((2S,4S)-4-(6-carbamoyl-2,3-difluorophenyl)-5-chloro-2-phenyl-2,3-dihydrobenzofuran-2-yl)methyl)amino)cyclohexane-1-carboxylate] |
| 8.22 | NC(=O)c1ccc(OC(F)F)c(F)c1-c1c(Cl)c(F)cc2c1C[C@@](CNC1CCC3(CCC(=O)N3)CC1)(c1ccccc1)O2 (single isomer, unassigned) [Example 59a] |
| 8.30 | NC(=O)c1ccc(OC(F)F)c(F)c1-c1c(Cl)c(F)cc2c1[C@H](O)[C@@](CN[C@H]1CC[C@@H](O)CC1)(c1ccccc1)O2 (relative stereo) [Example 100b, 2-((2S,3S,4S)-5-chloro-6-fluoro-3-hydroxy-2-((((cis)-4-hydroxycyclohexyl)amino)methyl)-2-phenyl-2,3-dihydrobenzofuran-4-yl)-4-(difluoromethoxy)-3-fluorobenzamide] |
| 8.70 | NC(=O)c1ccc(OC(F)F)c(F)c1-c1c(Cl)c(F)cc2c1[C@H](O)[C@@](CN[C@H]1CC[C@H](O)CC1)(c1ccccc1)O2 (relative stereo) [Example 100a, 2-((2S,3S,4S)-5-Chloro-6-fluoro-3-hydroxy-2-((((trans)-4-hydroxycyclohexyl)amino)methyl)-2-phenyl-2,3-dihydrobenzofuran-4-yl)-4-(difluoromethoxy)-3-fluorobenzamide] |
| 8.70 | C[C@H]1c2c(cc(F)c(Cl)c2-c2c(C(N)=O)ccc(OC(F)F)c2F)O[C@]1(CN[C@H]1CC[C@@H](O)CC1)c1ccccc1 (atropisomer, axis not shown) [Example 115b, 2-((2S,3S,4S)-5-chloro-6-fluoro-2-((((cis)-4-hydroxycyclohexyl)amino)methyl)-3-methyl-2-phenyl-2,3-dihydrobenzofuran-4-yl)-4-(difluoromethoxy)-3-fluorobenzamide] |
